Test results reported in patent US7435740B2 (King Pharmaceuticals Research and Development, Inc., priority 2005, dated 2008).
Like-named read-outs stand apart in the source and are kept apart here.

Assays:
[1] = target: human recombinant A2A adenosine receptors (Homo sapiens, UniProt P29274); test: Radioligand binding to hA2A receptors expressed in CHO cells; conditions: for [3H] ZM 241385 binding to hA2A receptors, percentage in parentheses: percentage given after the > bound, meaning not defined in the patent
Method: (§1) For membrane preparation the culture medium was removed and the cells were washed with PBS and scraped off T75 flasks in ice-cold hypotonic buffer (5 mM Tris HCl, 2 mM EDTA, pH 7.4).
(§2) The cell suspension was homogenized with Polytron and the homogenate was spun for 10 min at 1,000×g. The supernatant was then centrifuged for 30 min at 100,000×g. […] Then the suspension was frozen at −80° C.
(§3) Ki=IC50/(1+[C*]/KD*), where [C*] is the concentration of the radioligand and KD* its dissociation constant.

[2] = target: T1, human recombinant A1 adenosine receptor (Homo sapiens, UniProt P30542); test: [3H]-DPCPX binding to human A1 adenosine receptor expressed in CHO cells; conditions: for [3H] DPCPX binding to hA1, percentage in parentheses: percentage given after the > bound, meaning not defined in the patent
T1 sequence (P30542 1-326): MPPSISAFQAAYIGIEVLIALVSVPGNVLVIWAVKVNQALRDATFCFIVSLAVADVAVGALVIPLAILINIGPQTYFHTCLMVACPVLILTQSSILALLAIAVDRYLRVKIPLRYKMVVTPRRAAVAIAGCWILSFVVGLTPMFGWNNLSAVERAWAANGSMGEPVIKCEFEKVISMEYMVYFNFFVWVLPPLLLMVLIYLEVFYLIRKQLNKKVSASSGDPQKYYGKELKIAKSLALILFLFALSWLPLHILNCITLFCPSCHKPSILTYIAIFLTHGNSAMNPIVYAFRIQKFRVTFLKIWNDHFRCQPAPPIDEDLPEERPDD
Method: as §1, §2, §3

[3] = target: T2, human recombinant A3 adenosine receptors (Homo sapiens, UniProt P0DMS8); test: [3H]-MRE 3008F20 binding to hA3 receptors expressed in CHO cells; conditions: for Ki: CHO cell membranes, 1 nM [3H]-MRE 3008F20, geometric mean, confidence limits in the line below, read-out: [3H] MRE3008F20 binding to hA3 receptors expressed in CHO cells Ki; for [3H] MRE3008F20 binding to hA3 receptors, percentage in parentheses: percentage printed below the > bound, meaning not defined in the patent; for A3 receptor affinity (in words) / selectivity versus the adenosine hA1 subtype (in words): qualitative statement; for selectivity versus the adenosine hA1 subtype (in words): hA3 versus hA1
T2 construct: expressed in transfected cells; host or cells: CHO cells (membranes)
T2 sequence (P0DMS8 1-318): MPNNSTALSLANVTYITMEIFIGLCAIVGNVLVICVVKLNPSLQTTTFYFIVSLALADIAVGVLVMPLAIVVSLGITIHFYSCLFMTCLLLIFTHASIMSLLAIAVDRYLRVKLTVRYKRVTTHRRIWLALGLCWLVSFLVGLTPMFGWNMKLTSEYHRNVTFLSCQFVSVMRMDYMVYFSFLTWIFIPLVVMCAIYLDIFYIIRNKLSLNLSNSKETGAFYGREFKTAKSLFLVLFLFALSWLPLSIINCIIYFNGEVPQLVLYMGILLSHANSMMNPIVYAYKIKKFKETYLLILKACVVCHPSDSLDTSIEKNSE
Method: as §1, §2
Non-specific binding was defined as binding in the presence of 1 μM MRE 3008F20 and was about 30% of total binding.
as §3

[4] = target: T3, human recombinant A2B adenosine receptor (Homo sapiens, UniProt P29275); test: cAMP assay in CHO hA2B; assay type: cell-based; conditions: for IC50: confidence limits in parentheses, read-out: cAMP assay in CHO hA22B IC50; for cAMP assay in CHO hA22B, percentage in parentheses: percentage given after the > bound, meaning not defined in the patent
T3 sequence (P29275 1-332): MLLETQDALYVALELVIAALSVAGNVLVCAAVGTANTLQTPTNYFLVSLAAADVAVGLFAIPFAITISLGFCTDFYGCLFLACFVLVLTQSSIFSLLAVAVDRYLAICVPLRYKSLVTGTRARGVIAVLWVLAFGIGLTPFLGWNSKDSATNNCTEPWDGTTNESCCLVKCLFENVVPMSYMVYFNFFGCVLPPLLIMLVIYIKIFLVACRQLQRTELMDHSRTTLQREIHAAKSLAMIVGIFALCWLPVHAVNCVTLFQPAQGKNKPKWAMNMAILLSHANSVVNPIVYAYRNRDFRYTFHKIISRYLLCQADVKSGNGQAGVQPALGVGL

[5] = read-out: [3H] DPCPX binding to hA1, CHO cell membranes, 1 nM [3H]-DPCPX, geometric mean with confidence limits in parentheses

Sequence of human recombinant A2A adenosine receptors (P29274 whole entry): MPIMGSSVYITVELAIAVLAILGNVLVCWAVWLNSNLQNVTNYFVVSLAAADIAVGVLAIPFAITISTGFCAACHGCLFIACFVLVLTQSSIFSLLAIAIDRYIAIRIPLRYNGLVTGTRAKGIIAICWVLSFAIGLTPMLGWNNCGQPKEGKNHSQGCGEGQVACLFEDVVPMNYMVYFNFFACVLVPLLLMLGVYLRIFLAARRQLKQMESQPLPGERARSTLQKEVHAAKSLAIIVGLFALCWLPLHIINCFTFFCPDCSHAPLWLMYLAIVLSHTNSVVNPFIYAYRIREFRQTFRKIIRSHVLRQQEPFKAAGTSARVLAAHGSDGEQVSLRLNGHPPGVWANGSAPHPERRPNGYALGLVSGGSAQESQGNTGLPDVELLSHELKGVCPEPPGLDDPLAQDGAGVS

Compound: CCCn1c(=O)c2c(nc3n2CC(c2ccccc2)=C3)n(Cc2ccccc2)c1=O [Compound 1, 1-Benzyl-7-phenyl-3-propyl-1H-pyrrolo[1,2-f]purine-2,4(3H,6H)-dione]
- [3H] ZM 241385 binding to hA2A receptors, percentage in parentheses [1]: 99%
- [3H] DPCPX binding to hA1, percentage in parentheses [2]: 75%
- Ki [3]: 200 nM

Compound: CCCn1c(=O)c2c(nc3n2CC(c2ccccc2)=NN3C)n(Cc2ccccc2)c1=O [Compound 6, 8-Benzyl-1-methyl-3-phenyl-6-propyl-1,4-dihydro-8H-1,2,4a,6,8,9-hexaaza-fluorene-5,7-dione]
- Ki [1]: > 1000 nM
- [3H] ZM 241385 binding to hA2A receptors, percentage in parentheses [1]: 99%
- Ki [2]: > 1000 nM
- [3H] DPCPX binding to hA1, percentage in parentheses [2]: 79%
- Ki [3]: > 1000 nM
- [3H] MRE3008F20 binding to hA3 receptors, percentage in parentheses [3]: (99%)
- IC50 [4]: > 1000 nM
- cAMP assay in CHO hA22B, percentage in parentheses [4]: 94%

Compound: CCCn1c(=O)c2c(nc3n2CC(c2ccccc2)=NN3CCO)n(Cc2ccccc2)c1=O [Compound 7, 8-Benzyl-1-(2-hydroxy-ethyl)-3-phenyl-6-propyl-1,4-dihydro-8H-1,2,4a,6,8,9-hexaaza-fluorene-5,7-dione]
- Ki [1]: > 1000 nM
- [3H] ZM 241385 binding to hA2A receptors, percentage in parentheses [1]: 99%
- Ki [2]: > 1000 nM
- [3H] DPCPX binding to hA1, percentage in parentheses [2]: 91%
- Ki [3]: > 1000 nM
- [3H] MRE3008F20 binding to hA3 receptors, percentage in parentheses [3]: (99%)
- IC50 [4]: > 1000 nM
- cAMP assay in CHO hA22B, percentage in parentheses [4]: 83%

Compound: CCCn1c(=O)c2c(nc3[nH]c(-c4ccccc4)cn32)n(CCC)c1=O [Compound 8, 7-Phenyl-1,3-dipropyl-1H-imidazo[1,2-f]purine-2,4(3H,8H)-dione]
- Ki [1]: > 1000 nM
- [3H] ZM 241385 binding to hA2A receptors, percentage in parentheses [1]: 78%
- Ki [2, 5]: 373 nM
- Ki [3]: 99 nM
- A3 receptor affinity (in words) [3]: substantial maintenance of A3 receptor affinity
- selectivity versus the adenosine hA1 subtype (in words) [3]: significant loss of selectivity
- IC50 [4]: > 1000 nM
- cAMP assay in CHO hA22B, percentage in parentheses [4]: 61%

Compound: CC(C)Cn1c(=O)c2c(nc3[nH]c(-c4ccccc4)cn32)n(CC(C)C)c1=O [Compound 9, 1,3-Diisobutyl-7-phenyl-1H-imidazo[1,2-f]purine-2,4(3H,8H)-dione]
- Ki [1]: > 1000 nM
- [3H] ZM 241385 binding to hA2A receptors, percentage in parentheses [1]: 86%
- Ki [2, 5]: 476 nM
- Ki [3]: 144 nM
- A3 receptor affinity (in words) [3]: substantial maintenance of A3 receptor affinity
- selectivity versus the adenosine hA1 subtype (in words) [3]: significant loss of selectivity
- IC50 [4]: > 1000 nM
- cAMP assay in CHO hA22B, percentage in parentheses [4]: 99%

Compound: CCCn1c(=O)c2c(nc3n2CC(C)=C3)n(Cc2ccccc2)c1=O [Compound 17, 1-Benzyl-7-methyl-3-propyl-1H-pyrrolo[1,2-f]purine-2,4(3H,6H)-dione]
- Ki [1]: > 5000 nM
- [3H] ZM 241385 binding to hA2A receptors, percentage in parentheses [1]: 99%
- Ki [2]: 3030 nM
- Ki [3]: 8 nM
- IC50 [4]: 400 nM

Compound: CCCn1c(=O)c2c(nc3n2CC(CC)=C3)n(Cc2ccccc2)c1=O [Compound 18, 1-Benzyl-7-ethyl-3-propyl-1H-pyrrolo[1,2-f]purine-2,4(3H,6H)-dione]
- cAMP assay in CHO hA22B, percentage in parentheses [4]: 71%

Compound: CCCn1c(=O)c2c(nc3n2C(C)C(C)=C3)n(Cc2ccccc2)c1=O (stereo not drawn) [Compound 19, 1-Benzyl-6,7-dimethyl-3-propyl-1H-pyrrolo[1,2-f]purine-2,4(3H,6H)-dione]
- [3H] ZM 241385 binding to hA2A receptors, percentage in parentheses [1]: 91%
- [3H] DPCPX binding to hA1, percentage in parentheses [2]: 65%
- Ki [3]: 80 nM
- cAMP assay in CHO hA22B, percentage in parentheses [4]: 60%
